From US20250230138A1, “COMPOUNDS HAVING A T-STRUCTURE FORMED BY AT LEAST FOUR CYCLES FOR USE IN THE TREATMENT OF CANCER AND OTHER INDICATIONS” (TheRas, Inc., priority 2022, published 2025)
Like-named read-outs stand apart in the source and are kept apart here.

Assays:
[1] = target: Cys242 in human PIK3CA (157-299) (Homo sapiens (Human), UniProt P42336); experiment: Covalent modification assay using MALDI-TOF MS; type: biochemical; conditions: 4 h reaction time point; 3.33 μM protein target, 1:7.5 protein to compound ratio (compounds 1-852)
Outline: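 PIK3CA (157-299), 3.33 or 1 μM in 20 mM HEPES, 150 mM NaCl, 2 mM MgCl2, pH 7.3, was incubated with compound at room temperature in the dark for 15 min, 30 min, 2 h or 4 h. Linear MALDI-TOF read-out; % modification = adduct peak height over summed heights of all protein species.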

pAKT in BT474 cells = experiment: Cell-based pAKT HTRF assay in BT474 cells; conditions: BT474 cells, 4 hr incubation, Compounds 10-999, read-out: pAKT inhibition IC50 in BT474 cells
Outline: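 The HTRF signal (excitation 320 nm, emission 615 nm) came from d2/Eu Cryptate antibodies added to lysates and incubated 4–24 h at room temperature. Those lysates were taken from cells treated for 4 hr with compound, top concentration 3 μM, in 0.25% DMSO.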

Sequence of Cys242 in human PIK3CA (157-299) (P42336 157-299): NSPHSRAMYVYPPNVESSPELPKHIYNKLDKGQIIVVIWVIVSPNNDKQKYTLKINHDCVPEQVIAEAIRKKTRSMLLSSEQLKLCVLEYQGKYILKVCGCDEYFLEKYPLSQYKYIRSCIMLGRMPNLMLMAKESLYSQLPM

| Structure (SMILES) | IC50 (pAKT in BT474 cells) | IC50 (pAKT in BT474 cells; Homo sapiens, BT-474) | % of modification [1] |
| --- | --- | --- | --- |
| C=CC(=O)N1CCn2nc(-c3nc(-c4ccc5cn(C)nc5c4)c4ccsc4c3-c3c(F)cc(F)cc3OCCO)cc2[C@@H]1C [Compound 780] | < 100 nM |  | A (percent of modification of PIK3CA protein ≥75%) |
| C=CC(=O)N1Cc2cc(-c3nc(-c4ccc5cn(C)nc5c4)c4ccsc4c3-c3c(F)cc(F)cc3OCCO)nn2C(C)C1 (stereo not shown) [Compound 783] | < 100 nM |  | A (percent of modification of PIK3CA protein ≥75%) |
| C=CC(=O)N1Cc2cc(-c3nc(-c4cnnc(C)c4)c4ccsc4c3-c3c(F)cc(F)cc3OCCO)nn2C(C)C1 (stereo not shown) [Compound 788] | < 100 nM |  | A (percent of modification of PIK3CA protein ≥75%) |
| C=CC(=O)N1Cc2cc(-c3nc(-c4cnn(C)c(=O)c4)c4ccsc4c3-c3c(F)cc(F)cc3OCCOC)nn2C[C@H]1C [Compound 793] | < 100 nM |  | A (percent of modification of PIK3CA protein ≥75%) |
| C=CC(=O)N1Cc2cc(-c3nc(-c4ccc5c(c4)CN(C)C5=O)c4ccsc4c3-c3c(F)cc(F)cc3OCCOC)nn2C[C@H]1C [Compound 795] | < 100 nM |  | A (percent of modification of PIK3CA protein ≥75%) |
| C=CC(=O)N1Cc2cc(-c3nc(-c4ccc(P(C)(C)=O)cc4)c4ccsc4c3-c3c(F)cc(F)cc3OCCOC)nn2C[C@H]1C [Compound 800, 1-[(6R)-2-[7-[2,4-difluoro-6-(2-methoxyethoxy)phenyl]-4-(4-dimethylphosphorylphenyl)thieno[3,2-c]pyridin-6-yl]-6-methyl-6,7-dihydro-4H-pyrazolo[1,5-a]pyrazin-5-yl]prop-2-en-1-one] |  | < 100 nM | A (percent of modification of PIK3CA protein ≥75%) |
| C=CC(=O)N1Cc2cc(-c3nc(-c4cn(C)cn4)c4ccsc4c3-c3c(F)cc(F)cc3OCCO)nn2[C@@H](C)C1 [Compound 819] | < 100 nM |  | A (percent of modification of PIK3CA protein ≥75%) |
| C=CC(=O)N1Cc2cc(-c3nc(-c4cnn(C)c4)c4ccsc4c3-c3c(F)cc(F)cc3OC)nn2C[C@H]1C [Compound 820] | < 100 nM |  | A (percent of modification of PIK3CA protein ≥75%) |
| C=CC(=O)N1Cc2cc(-c3nc(-c4ccc5nn(C)cc5c4)c4ccsc4c3-c3c(F)cc(F)cc3OC)nn2C[C@H]1C [Compound 821] | < 100 nM |  | A (percent of modification of PIK3CA protein ≥75%) |
| C=CC(=O)N1CCn2nc(-c3nc(-c4cnnc(C)c4)c4ccsc4c3-c3c(F)cc(F)cc3OCC(C)O)cc2C1C (stereo not shown) [Compound 823] | < 100 nM |  | A (percent of modification of PIK3CA protein ≥75%) |
| C=CC(=O)N1Cc2cc(-c3nc(-n4cnc(C)c4)c4ccsc4c3-c3c(F)cc(F)cc3OCCOC)nn2C[C@H]1C [Compound 824] | < 100 nM |  | A (percent of modification of PIK3CA protein ≥75%) |
| C=CC(=O)N1Cc2cc(-c3nc(-c4cnc5oc(C)nc5c4)c4ccsc4c3-c3c(F)cc(F)cc3OCCOC)nn2C[C@H]1C [Compound 825] | < 100 nM |  | A (percent of modification of PIK3CA protein ≥75%) |
| C=CC(=O)N1Cc2cc(-c3nc(-c4cnnc(C)c4)c4ccsc4c3-c3c(F)cc(F)cc3OCCO)nn2CC1C (stereo not shown) [Compound 829] | < 100 nM |  | A (percent of modification of PIK3CA protein ≥75%) |
| C=CC(=O)N1Cc2cc(-c3nc(-c4cnccn4)c4ccsc4c3-c3c(F)cc(F)cc3OCCOC)nn2C[C@H]1C [Compound 840] | < 100 nM |  | A (percent of modification of PIK3CA protein ≥75%) |
| C=CC(=O)N1Cc2cc(-c3nc(-c4ccc5c(c4)CCN(C)CC5)c4ccsc4c3-c3c(F)cc(F)cc3OCCOC)nn2C[C@H]1C [Compound 841] | < 100 nM |  | A (percent of modification of PIK3CA protein ≥75%) |
| C=CC(=O)N1CCn2nc(-c3nc(-c4ccc5c(c4)C(=O)N(C)C5)c4ccsc4c3-c3c(F)cc(F)cc3OCCOC)cc2[C@H]1C [Compound 846] | < 100 nM |  | A (percent of modification of PIK3CA protein ≥75%) |

The next lines start with results.

| IC50 (pAKT in BT474 cells) | IC50 (pAKT in BT474 cells; Homo sapiens, BT-474) | Structure (SMILES) | % of modification [1] |
| --- | --- | --- | --- |
| < 100 nM |  | C=CC(=O)N1Cc2cc(-c3nc(-c4ccc5c(c4)NC(=O)C5)c4ccsc4c3-c3c(F)cc(F)cc3OCCOC)nn2C[C@H]1C [Compound 779] | A (percent of modification of PIK3CA protein ≥75%) |
| < 100 nM |  | C=CC(=O)N1CCn2nc(-c3nc(-c4cn(C)cn4)c4ccsc4c3-c3c(F)cc(F)cc3OCCO)cc2[C@@H]1C [Compound 781] | A (percent of modification of PIK3CA protein ≥75%) |
| < 100 nM |  | C=CC(=O)N1Cc2cc(-c3nc(-c4cnc(C)nc4)c4ccsc4c3-c3c(F)cc(F)cc3OCCO)nn2C(C)C1 (stereo not shown) [Compound 785] | A (percent of modification of PIK3CA protein ≥75%) |
| < 100 nM |  | C=CC(=O)N1CCn2nc(-c3nc(-c4cn(C)cn4)c4ccsc4c3-c3c(F)cc(F)cc3OCCO)cc2C1C (stereo not shown) [Compound 786] | A (percent of modification of PIK3CA protein ≥75%) |
| 100 to 1000 nM |  | C=CC(=O)N1Cc2cc(-c3nc(-c4cnnc(C)c4)c4ccsc4c3-c3c(F)cc(F)cc3OCCO)nn2C(C)C1 (stereo not shown) [Compound 787] | D (percent of modification <25%) |
| < 100 nM |  | C=CC(=O)N1CCn2nc(-c3nc(-c4ccc5oc(C)nc5c4)c4ccsc4c3-c3c(F)cc(F)cc3OCCO)cc2C1C (stereo not shown) [Compound 789] | A (percent of modification of PIK3CA protein ≥75%) |
| < 100 nM |  | C=CC(=O)N1CCn2nc(-c3nc(-c4cnnc(C)c4)c4ccsc4c3-c3c(F)cc(F)cc3OCCOC)cc2C1C (stereo not shown) [Compound 790] | A (percent of modification of PIK3CA protein ≥75%) |
| < 100 nM |  | C=CC(=O)N1CCn2nc(-c3nc(-c4cnc(C)nc4)c4ccsc4c3-c3c(F)cc(F)cc3OCC(C)O)cc2C1C (stereo not shown) [Compound 791] | A (percent of modification of PIK3CA protein ≥75%) |
| < 100 nM |  | C=CC(=O)N1CCn2nc(-c3nc(-c4cnc(C)nc4)c4ccsc4c3-c3c(F)cc(F)cc3OCCOC)cc2C1C (stereo not shown) [Compound 792] | A (percent of modification of PIK3CA protein ≥75%) |
| > 3000 nM |  | C=CC(=O)N1Cc2cc(-c3nc(-c4ccc5c(c4)CCS5(=O)=O)c4ccsc4c3-c3c(F)cc(F)cc3OCCOC)nn2C[C@H]1C [Compound 794] | A (percent of modification of PIK3CA protein ≥75%) |
| < 100 nM |  | C=CC(=O)N1Cc2cc(-c3nc(-c4cnc5c(cnn5C)c4)c4ccsc4c3-c3c(F)cc(F)cc3OCCOC)nn2C[C@H]1C [Compound 797] | A (percent of modification of PIK3CA protein ≥75%) |
| < 100 nM |  | C=CC(=O)N1Cc2cc(-c3nc(-c4cnc5cn(C)nc5c4)c4ccsc4c3-c3c(F)cc(F)cc3OCCOC)nn2C[C@H]1C [Compound 818] | A (percent of modification of PIK3CA protein ≥75%) |
| < 100 nM |  | C=CC(=O)N1Cc2cc(-c3nc(-c4nc(C)no4)c4ccsc4c3-c3c(F)cc(F)cc3OCCOC)nn2C[C@H]1C [Compound 822] | A (percent of modification of PIK3CA protein ≥75%) |
| < 100 nM |  | C=CC(=O)N1Cc2cc(-c3nc(-c4cnc(C)nc4)c4ccsc4c3-c3c(F)cc(F)cc3OCCO)nn2CC1C (stereo not shown) [Compound 831] | A (percent of modification of PIK3CA protein ≥75%) |
| < 100 nM |  | C=CC(=O)N1Cc2cc(-c3nc(-c4ccc5nn(C)cc5c4)c4ccsc4c3-c3c(F)cc(F)cc3OCCO)nn2CC1C (stereo not shown) [Compound 832] | A (percent of modification of PIK3CA protein ≥75%) |
| < 100 nM |  | C=CC(=O)N1CCn2nc(-c3nc(-c4cn(C)cn4)c4ccsc4c3-c3c(F)cc(F)cc3OCC(C)O)cc2C1C (stereo not shown) [Compound 833] | A (percent of modification of PIK3CA protein ≥75%) |
| < 100 nM |  | C=CC(=O)N1Cc2cc(-c3nc(-c4ccc5c(c4)C(=O)NC5)c4ccsc4c3-c3c(F)cc(F)cc3OC)nn2C[C@H]1C [Compound 837] | A (percent of modification of PIK3CA protein ≥75%) |
| < 100 nM |  | C=CC(=O)N1Cc2cc(-c3nc(-c4ccnc(N(C)C)c4)c4ccsc4c3-c3c(F)cc(F)cc3OCCOC)nn2C[C@H]1C [Compound 839] | A (percent of modification of PIK3CA protein ≥75%) |
| < 100 nM |  | C=CC(=O)N1Cc2cc(-c3nc(-c4ccc5ncn(C)c(=O)c5c4)c4ccsc4c3-c3c(F)cc(F)cc3OCCOC)nn2C[C@H]1C [Compound 842] | A (percent of modification of PIK3CA protein ≥75%) |
| < 100 nM |  | C=CC(=O)N1Cc2cc(-c3nc(-c4cn(C)cn4)c4ccsc4c3-c3c(F)cc(F)cc3OC)nn2C[C@H]1C [Compound 843] | A (percent of modification of PIK3CA protein ≥75%) |
| < 100 nM |  | C=CC(=O)N1Cc2cc(-c3nc(-c4ccc5cn(C)nc5c4)c4ccsc4c3-c3c(F)cc(F)cc3OC)nn2C[C@H]1C [Compound 844] | A (percent of modification of PIK3CA protein ≥75%) |
|  | < 100 nM | C=CC(=O)N1CCn2nc(-c3nc(-c4ccc5c(c4)C(=O)NC5)c4ccsc4c3-c3c(F)cc(F)cc3OCCOC)cc2[C@H]1C [Compound 845, 6-((S)-6-((R)-5-acryloyl-4-methyl-4,5,6,7-tetrahydropyrazolo[1,5-a]pyrazin-2-yl)-7-(2,4-difluoro-6-(2-methoxyethoxy)phenyl)thieno[3,2-c]pyridin-4-yl)isoindolin-1-one] | A (percent of modification of PIK3CA protein ≥75%) |
